Legend:
[1] = test system: hiPSC-CM EHTs; assay: Inotropic/lusitropic response of hiPSC-CM EHTs to β-adrenergic agonist; format: cell-based, human; settings: 100 nM isoproterenol, 8% stretch, 30 minutes equilibration, vs baseline
Experimental: To determine twitch force development and kinetics, EHTs were measured as early as 5 days after seeding. Clips holding the EHT were ejected from the frame and picked up by motorized micromanipulators with claw-like extensions, leaving the muscle suspended between an anchoring attachment claw on one end and a force transducer mounted to a second claw on the other (FIG. 5D). The EHT was immersed in a temperature-controlled perfusion bath equipped with electrodes for field stimulus. Throughout measurements, scaffolds were perfused with freshly oxygenated Tyrode's solution (in mM: NaCl 140, KCl5.4, MgCl2 1, HEPES 25, glucose 10, and CaCl 1.8; pH adjusted to 7.35). Used Tyrode's solution was collected in a sealed chamber during testing and checked to ensure adequate consistency of pH. The maximum fluctuation never exceeded 0.05 pH units. All measurements were performed at 35° C. During biomechanical testing, NRVM-EHTs were electrically paced (12 V, 10 ms pulse width at 0.5 Hz) and the resulting twitch force was recorded (FIG. 5E). Human EHTs were paced at 1 Hz. Intracellular calcium concentrations were measured in some constructs using the ratiometric fluorescent indicator Fura-2 AM. Inotropic response. […] Tissues were equilibrated in Tyorde's solution for 30 minutes and measured at 8% stretch. […]

[2] = test system: EHTs from neonatal rat ventricular myocytes (NRVMs) seeded into laser-cut decellularized porcine myocardium; assay: Twitch stress and kinetics of NRVM engineered heart tissues cultured with thyroid hormone T3; format: cell-based
Experimental: To determine twitch force development and kinetics, EHTs were measured as early as 5 days after seeding. Clips holding the EHT were ejected from the frame and picked up by motorized micromanipulators with claw-like extensions, leaving the muscle suspended between an anchoring attachment claw on one end and a force transducer mounted to a second claw on the other (FIG. 5D). The EHT was immersed in a temperature-controlled perfusion bath equipped with electrodes for field stimulus. Throughout measurements, scaffolds were perfused with freshly oxygenated Tyrode's solution (in mM: NaCl 140, KCl5.4, MgCl2 1, HEPES 25, glucose 10, and CaCl 1.8; pH adjusted to 7.35). Used Tyrode's solution was collected in a sealed chamber during testing and checked to ensure adequate consistency of pH. The maximum fluctuation never exceeded 0.05 pH units. All measurements were performed at 35° C. During biomechanical testing, NRVM-EHTs were electrically paced (12 V, 10 ms pulse width at 0.5 Hz) and the resulting twitch force was recorded (FIG. 5E). Human EHTs were paced at 1 Hz. Intracellular calcium concentrations were measured in some constructs using the ratiometric fluorescent indicator Fura-2 AM.
During mechanical testing, EHTs were stretched until reaching their culture length (6 mm) and again after applying 0.1 mm incremental increases until reaching a length of 6.6 mm (representing 10% total stretch). Ten contraction events were recorded and averaged at each level of stretch. The peak stress (mN/mm^2) was computed offline by dividing measured force by the cross-sectional area of the EHT. Characteristics of contraction kinetics were also computed offline, including the time to peak stress (TTP) and time from peak stress to 50% relaxation (RT50). The length-stress gain during isometric stretch (slope of the stretch-peak stress relationship, FIG. 13C) was calculated for each scaffold using engineering strain as the unit for stretch. The force-frequency relationship was determined while keeping EHTs at 10% stretch and taking records at 0.5, 1, 2, 4, 6, and 8 Hz. During force-frequency measurements, pacing capture of EHTs was ensured by checking real time oscilloscope readings of the force transducer voltage output.
Thyroid hormone speeds contractile kinetics. To assess the sensitivity of this system towards changes in contractility and twitch kinetics, EHTs were subjected to a pharmacological perturbation known to alter the intrinsic properties of cardiac muscle. In rodents, an increase in thyroid hormone (T3) promotes expression of the faster α isoform of myosin heavy chain23. […] EHTs were characterized functionally and then returned to culture conditions at days 5, 8, 12, and 15.

[3] = 15 days old NRVM EHTs after T3 treatment, 2 Hz pacing

Row | SMILES | lusitropic response (twitch kinetics TTP and RT50) [1] | RT50 [2, 3] | TTP [2, 3] | time to peak stress (TTP) ([2]; NRVM EHTs, T3 10 ng/ml in culture, after 15 days in culture, untreated 113±6 ms) | time from peak stress to 50% relaxation (RT50) ([2]; NRVM EHTs, T3 10 ng/ml in culture, after 15 days in culture, untreated 130±3 ms) | effect on evolution of peak stress development across time points ([2]; T3 10 ng/ml, days 5, 8, 12, 15, 2-way repeated measures ANOVA) | effect on rates of contraction and relaxation vs non-treated control ([2]; T3 10 ng/ml, every time point analyzed (days 5, 8, 12, 15), p<0.001)
1 | CC(C)NCC(O)c1ccc(O)c(O)c1 (stereo not shown) [Isoproterenol] | shorter TTP and RT50 | – | – | – | – | – | –
2 | N[C@@H](Cc1cc(I)c(Oc2ccc(O)c(I)c2)c(I)c1)C(=O)O [T3] | – | around 59 ms | 83 ms | 77 ± 2 ms | 63 ± 3 ms | no significant effect | significantly accelerated rates of contraction and relaxation
